Laboratory results taken from US11780851B2, “LRRK2 inhibitors” (H. Lundbeck A/S, priority 2021, dated 2023).
Read-outs that look alike come from different tables or passages of the source.

How the values were obtained:
LRRK2 G2019S = molecular target: T1, LRRK2 G2019S (Homo sapiens, UniProt Q5S007, G2019S); experiment: LRRK2 G2019S kinase activity assay (LanthaScreen TR-FRET); assay type: biochemical; settings: 250 pM LRRK2 G2019S, 1.3 mM ATP, 3 h at 30° C.; n≥2 tests
T1 construct: purchased Invitrogen (Life Technologies Corporation)
Experimental: (§1) LRRK2 kinase activity was measured using a LanthaScreen kinase activity assay available from Invitrogen (Life Technologies Corporation). The assay is a homogeneous time resolved-fluorescence resonance energy transfer (TR-FRET) assay that measures phosphorylation of a fluorescein-labelled peptide substrate Fluorescein-ERM LRRKtide obtainable from Life Technologies Corporation as a result of LRRK2 kinase activity. The phosphorylated peptide is recognized by a terbium-labelled phospho-specific anti-LRRKtide antibody (pLRRKtide antibody), obtainable from Life Technologies Corporation and, subsequently, the phosphorylated LRRKtide can be quantified by the extent of TR-FRET between the terbium donor and fluorescein acceptor. The LRRK2 kinase was obtained from Invitrogen (Life Technologies Corporation) and comprises residue 970 to 2527 of the full length human wild-type LRRK2 kinase, or a similar sequence with the G2019S mutation. As discussed above, this mutation increases the kinase activity relative to the wild type. The kinase reactions were performed in a 20 μL volume in 384-well plates. […] The mixture was further incubated for 30 minutes at RT. […] The measurement was repeated 30 times for fluorescein and 30 times for terbium emission with a 1000 μs time window between repeats. TR-FRET measurements were performed on a Biotek Synergy plate. The TR-FRET signal was calculated as the emission-ratio at 520 nm over 495 nm. The TR-FRET ratio readout for test compounds was normalized to 0% inhibition corresponding to TR-FRET ratio measured in control wells with no inhibition of the kinase activity and 100% inhibition corresponding to TR-FRET ratio measured in control wells with inhibitor. […] C is the IC50 value and D is the Hill slope coefficient. IC50 estimates were obtained from independent experiment and the logarithmic average was calculated.

LRRK2 WT = molecular target: T2, LRRK2 WT (Homo sapiens, UniProt Q5S007); experiment: LRRK2 wild-type kinase activity assay (LanthaScreen TR-FRET); assay type: biochemical; settings: 1 nM LRRK2 WT, 1.3 mM ATP, 3.5 h at 30° C.; n≥2 tests
T2 construct: comprises residue 970 to 2527 of the full length human wild-type LRRK2 kinase; purchased Invitrogen (Life Technologies Corporation)
Experimental: as §1

[1] = Hepatocyte intrinsic clearance assay; assay type: in vitro ADME, human; settings: human, pooled donor, cryopreserved hepatocytes, pH 7.4, 0.1 μM, 2 h at 37° C., 1×10^6 hepatocytes/mL; * measured on 3 separate occasions, ** on a single occasion
Experimental: Test compounds (final concentration 0.1 μM, 0.05% organic) were incubated for 2 h at 37° C., with shaking, in supplemented Leibovitz L-15 media (pH7.4) containing commercially sourced, pooled donor, cryopreserved hepatocytes (final concentration 1×10^6 hepatocytes/m L). The CLint reactions (350 μL) were initiated by addition of test compound. Aliquots (25 μL) were taken at 1, 5, 10, 15, 30, 60, 90 and 120 minutes and then protein crashed with ice-cold acetonitrile containing internal standard (150 μL) then centrifuged (1960 g for 20 minutes at 4° C.). Supernatant was diluted (1:4) with deionized water then analyzed by liquid chromatography (LC)-tandem mass spectrometry (MS/MS). The intrinsic clearances (CLint) were calculated from the slope (k) of the linear regressions of percentages of compound remaining in incubation against incubation time, according to equations 2 and 3.

[2] = Rat B/P (brain disposition); assay type: in vivo, male Sprague-Dawley rats; settings: male, Sprague-Dawley; for concentration at 0.5 h / Kp uu at 0.5 h / Kp at 0.5 h: time point 0.5 h; for concentration at 0.5 h / Kp at 0.5 h / concentration at 1 h / Kp at 1 h: mean ± stdev; for Kp uu at 0.5 h / Kp at 0.5 h / Kp uu at 1 h / Kp at 1 h: brain/plasma; for Kp uu at 0.5 h / Kp uu at 1 h: fubrain from brain homogenate; for Kp at 0.5 h / Kp at 1 h: n = 3; for concentration at 1 h / Kp uu at 1 h / Kp at 1 h: time point 1.0 h
Experimental: Brain disposition was evaluated for each compound in male Sprague-Dawley rats (n=3, standard body weight). […] Isolated plasma and brain homogenates were extracted by standard protein precipitation in acetonitrile, containing internal standard, followed by LC-MS/MS analysis using an optimized analytical method. Concentrations of test compound in plasma and brain were quantified against matrix matched calibration standards. The total plasma and brain concentration data are presented in Table 7 alongside the calculated brain Kp (total brain concentration:total plasma concentration ratio).

[3] = Free fraction in plasma (equilibrium dialysis); assay type: in vitro ADME, male Sprague-Dawley rat; settings: rat plasma, 1 μM, 5 h at 37° C.
Experimental: The free fractions in male Sprague-Dawley rat or female Gottingen minipig plasma (fuplasma) and rat brain homogenate (fubrain) were determined by equilibrium dialysis using 96-well HTD-dialysis plates with dialysis membranes (molecular weight cut off 12-14 KDa). One side of the HTD-dialysis plate was loaded with matrix (plasma or brain homogenate) and the other side with buffer (100 mM sodium phosphate buffer, pH 7.4). Test compounds were dissolved in DMSO then spiked (5 μL of 0.2 mM) into blank (995 μL) plasma or diluted brain homogenate (1:4 ratio in phosphate buffer) giving a final nominal concentration 1 μM (≤0.5% DMSO). The matrices were loaded into respective chambers and equilibrated against phosphate buffer for 5 h at 37° C. (in a humidified air incubator with 5% CO2 with shaking). Samples from both chambers (buffer and plasma or brain homogenate) were aliquoted to fresh 96-well polypropylene plates then matrix matched using an equal volume of opposite blank matrix before extraction with cold solvent (3 volumes acetonitrile) containing an appropriate bioanalytical internal standard. After centrifugation (20 min, 3200 g, 4° C.) the supernatants were diluted with appropriate volumes of water and compound concentrations were quantified by LC/MS-MS against matrix matched calibration standards. The fuplasma and fubrain were calculated as a percent free according to equation 4 below.
Where [F] is the analyte concentration on the buffer (receiver) side of the membrane; [T] is the analyte concentration on the plasma or brain (donor) side of the membrane; [TO] is the analyte concentration in the plasma or brain sample at time zero; D is matrix dilution factor which is determined as 4 for brain matrix and 1 for plasma matrix in these assays.

[4] = brain, oral gavage 5 mg/kg, n = 3, read-out: Total brain concentration
[5] = plasma, oral gavage 5 mg/kg, n = 3, read-out: Total plasma concentration
[6] = brain, oral gavage 10 mg/kg, n = 3, read-out: Total brain concentration
[7] = plasma, oral gavage 10 mg/kg, n = 3, read-out: Total plasma concentration

T2 sequence (Q5S007 970-2527): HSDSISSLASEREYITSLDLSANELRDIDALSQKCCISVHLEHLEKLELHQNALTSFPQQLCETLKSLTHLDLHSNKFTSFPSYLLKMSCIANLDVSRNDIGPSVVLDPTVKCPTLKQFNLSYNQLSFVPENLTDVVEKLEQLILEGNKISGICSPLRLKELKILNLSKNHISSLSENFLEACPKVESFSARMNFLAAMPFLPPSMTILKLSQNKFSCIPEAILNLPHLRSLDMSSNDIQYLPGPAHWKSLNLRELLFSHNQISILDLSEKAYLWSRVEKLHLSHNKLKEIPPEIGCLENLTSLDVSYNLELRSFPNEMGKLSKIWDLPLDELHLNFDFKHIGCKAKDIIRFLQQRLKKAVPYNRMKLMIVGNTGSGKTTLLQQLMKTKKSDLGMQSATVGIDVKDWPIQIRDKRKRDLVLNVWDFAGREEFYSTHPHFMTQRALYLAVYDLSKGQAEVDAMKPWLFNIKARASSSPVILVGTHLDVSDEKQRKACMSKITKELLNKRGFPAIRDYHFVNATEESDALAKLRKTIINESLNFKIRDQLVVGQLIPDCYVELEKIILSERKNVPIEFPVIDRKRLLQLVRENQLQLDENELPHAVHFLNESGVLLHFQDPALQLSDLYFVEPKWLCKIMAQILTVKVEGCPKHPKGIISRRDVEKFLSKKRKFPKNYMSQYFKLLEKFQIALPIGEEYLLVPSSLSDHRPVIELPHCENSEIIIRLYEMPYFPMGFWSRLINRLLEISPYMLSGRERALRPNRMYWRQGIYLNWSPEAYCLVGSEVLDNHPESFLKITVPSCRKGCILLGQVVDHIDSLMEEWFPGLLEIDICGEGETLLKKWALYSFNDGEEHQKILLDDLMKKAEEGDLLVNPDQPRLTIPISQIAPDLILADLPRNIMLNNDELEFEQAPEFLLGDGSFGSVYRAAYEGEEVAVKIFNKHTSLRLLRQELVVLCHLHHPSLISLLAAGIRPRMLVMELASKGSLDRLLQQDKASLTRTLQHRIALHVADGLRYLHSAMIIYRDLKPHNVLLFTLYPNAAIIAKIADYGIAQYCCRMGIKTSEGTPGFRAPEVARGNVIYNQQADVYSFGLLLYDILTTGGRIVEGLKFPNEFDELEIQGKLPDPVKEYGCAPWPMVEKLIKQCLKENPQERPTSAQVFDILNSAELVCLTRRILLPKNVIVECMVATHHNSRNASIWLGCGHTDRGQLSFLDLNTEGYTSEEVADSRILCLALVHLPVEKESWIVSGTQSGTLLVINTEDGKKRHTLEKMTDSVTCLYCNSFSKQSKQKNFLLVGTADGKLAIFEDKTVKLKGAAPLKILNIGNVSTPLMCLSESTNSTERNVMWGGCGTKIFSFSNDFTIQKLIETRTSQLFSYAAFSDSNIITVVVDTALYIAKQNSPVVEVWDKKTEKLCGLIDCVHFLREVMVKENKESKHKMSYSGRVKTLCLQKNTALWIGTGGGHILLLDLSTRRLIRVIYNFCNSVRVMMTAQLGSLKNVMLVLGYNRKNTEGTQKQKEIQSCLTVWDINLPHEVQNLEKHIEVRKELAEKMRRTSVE
T1 sequence (Q5S007 970-2527 G2019S): as the sequence (Q5S007 970-2527) above, with G1050S counted along it

Row | Compound | IC50 (LRRK2 G2019S) [nM] | IC50 (LRRK2 WT) [nM] | CLint scaled at 0.1 μM [1] [mL/min/kg] | fuplasma (% free) [3] [% free] | other results
1 | CCc1c2c(nn1[C@H]1CC[C@H](OC)CC1)OCCCn1nc(Cl)c3cnc(nc31)N2 [Example 57, 8-Chloro-3-ethyl-2-((1r,4r)-4-methoxycyclohexyl)-2,4,12,13-tetrahydro-11H-5,7-(azenometheno)dipyrazolo[3,4-b:5′,1′-g][1]oxa[4,6,8]triazacycloundecine] | 6.2 | 16 | 8.5 | – | –
2 | [2H]C([2H])([2H])c1c2c(nn1C1([2H])CCOCC1)OCCCn1nc(Cl)c3cnc(nc31)N2 [Example 15, 8-Chloro-3-(methyl-d3)-2-(tetrahydro-2H-pyran-4-yl-4-d)-2,4,12,13-tetrahydro-11H-5,7-(azenometheno)dipyrazolo[3,4-b:5′,1′-g][1]oxa[4,6,8]triazacycloundecine] | 2.4 | 6.8 | 4 | – | –
3 | [2H]C([2H])([2H])c1c2c(nn1[C@H]1CCCOCC1)OCCCn1nc(Cl)c3cnc(nc31)N2 (single isomer, unassigned) [Example 58, (+)-(R) or (S)-8-Chloro-3-(methyl-d3)-2-(oxepan-4-yl)-2,4,12,13-tetrahydro-11H-5,7-(azenometheno)dipyrazolo[3,4-b:5′,1′-g][1]oxa[4,6,8]triazacycloundecine] | 7 | 19 | 5 | – | –
4 | [2H]C([2H])([2H])c1c2c(nn1[C@@H]1CCOC[C@H]1F)OCCCn1nc(Cl)c3cnc(nc31)N2 (single isomer, unassigned) [Example 62, (−)-8-Chloro-2-((3R,4S) or (3S,4R)-3-fluorotetrahydro-2H-pyran-4-yl)-3-(methyl-d3)-2,4,12,13-tetrahydro-11H-5,7-(azenometheno)dipyrazolo[3,4-b:5′,1′-g][1]oxa[4,6,8]triazacycloundecine] | 5.9 | 17 | < 4 | – | –
5 | Cc1c2c(nn1[C@@H]1CC1(F)F)OCCCn1nc(Cl)c3cnc(nc31)N2 (single isomer, unassigned) [Example 40, (+)-(R) or (S)-8-Chloro-2-(2,2-difluorocyclopropyl)-3-methyl-2,4,12,13-tetrahydro-11H-5,7-(azenometheno)dipyrazolo[3,4-b:5′,1′-g][1]oxa[4,6,8]triazacycloundecine] | 12 | 28 | – | 12.7 | concentration at 0.5 h [2, 4]: 138 ± 12 ng/g; Kp uu at 0.5 h ([2]; oral gavage 5 mg/kg): 0.72 ± 0.08; Kp at 0.5 h ([2]; oral gavage 5 mg/kg): 1.93 ± 0.22; concentration at 0.5 h [2, 5]: 72 ± 8 ng/mL
6 | Cc1c2c(nn1C13CC(C#N)(C1)C3)OCCCn1nc(Cl)c3cnc(nc31)N2 [Example 33, 3-(8-Chloro-3-methyl-12,13-dihydro-11H-5,7-(azenometheno)dipyrazolo[3,4-b:5′,1′-g][1]oxa[4,6,8]triazacycloundecin-2(4H)-yl)bicyclo[1.1.1]pentane-1-carbonitrile] | 5.9 | 18 | – | 11.0 | concentration at 1 h [2, 4]: 37 ± 1 ng/g; Kp uu at 1 h ([2]; oral gavage 5 mg/kg): 0.4 ± 0.07; Kp at 1 h ([2]; oral gavage 5 mg/kg): 0.87 ± 0.15; concentration at 1 h [2, 5]: 43 ± 9 ng/mL
7 | Cc1c2c(nn1[C@H]1CCCOCC1)OCCCn1nc(Cl)c3cnc(nc31)N2 (single isomer, unassigned) [Example 29, (−)-(R) or (S)-8-Chloro-3-methyl-2-(oxepan-4-yl)-2,4,12,13-tetrahydro-11H-5,7-(azenometheno)dipyrazolo[3,4-b:5′,1′-g][1]oxa[4,6,8]triazacycloundecine] | 4.3 | 14 | 6.33 | – | –
8 | Cc1c2c(nn1C1CCOCC1)OCCCn1nc(C3CC3)c3cnc(nc31)N2 [Example 7, 8-Cyclopropyl-3-methyl-2-(tetrahydro-2H-pyran-4-yl)-2,4,12,13-tetrahydro-11H-5,7-(azenometheno)dipyrazolo[3,4-b:5′,1′-g][1]oxa[4,6,8]triazacycloundecine] | 63 | 210 | – | 28.7 | concentration at 1 h [2, 6]: 949 ± 463 ng/g; Kp uu at 1 h ([2]; oral gavage 10 mg/kg): 0.28 ± 0.1; Kp at 1 h ([2]; oral gavage 10 mg/kg): 0.63 ± 0.23; concentration at 1 h [2, 7]: 1550 ± 527 ng/mL
9 | Cc1c2c(nn1[C@H]1CCOC[C@]1(C)F)OCCCn1nc(Cl)c3cnc(nc31)N2 (single isomer, unassigned) [Example 47, (+)-8-Chloro-2-((3R,4S) or (3S,4R)-3-Fluoro-3-methyltetrahydro-2H-pyran-4-yl)-3-methyl-2,4,12,13-tetrahydro-11H-5,7-(azenometheno)dipyrazolo[3,4-b:5′,1′-g][1]oxa[4,6,8]triazacycloundecine] | 3.1 | 13 | – | 24.8 | concentration at 0.5 h [2, 4]: 235 ± 119 ng/g; Kp uu at 0.5 h ([2]; oral gavage 5 mg/kg): 0.57 ± 0.17; Kp at 0.5 h ([2]; oral gavage 5 mg/kg): 2.69 ± 0.83; concentration at 0.5 h [2, 5]: 83 ± 27 ng/mL
10 | Clc1nn2c3nc(ncc13)Nc1c(nn(C3CCOCC3)c1C1CC1)OCCC2 [Example 10, 8-Chloro-3-cyclopropyl-2-(tetrahydro-2H-pyran-4-yl)-2,4,12,13-tetrahydro-11H-5,7-(azenometheno)dipyrazolo[3,4-b:5′,1′-g][1]oxa[4,6,8]triazacycloundecine] | 6.2 | 19 | – | 30.2 | concentration at 1 h [2, 6]: 502 ± 92 ng/g; Kp at 1 h ([2]; oral gavage 10 mg/kg): 1.62 ± 0.16; Kp uu at 1 h ([2]; po, 10 mg/kg, oral gavage 10 mg/kg): 0.38 ± 0.04; concentration at 1 h [2, 7]: 314 ± 83 ng/mL
